According to PubChem BioAssay AID330 (DTP/NCI, 2004):
Values joined by “and” are separate entries in the source; they are usually repeats but may differ in a detail not shown here. Identical values can stand only once. Toxic doses and inconclusive results are not listed. Rule for the calls: active = survival T/C of 150% or more; inactive = T/C below 125% in these data.

System: P388 leukemia ip, CD2F1 mice, survival T/C
Test: NCI In Vivo Anticancer Drug Screen. Data for tumor model P388 Leukemia (intraperitoneal) in CD2F1 (CDF1) mice
Details: endpoint: median survival time, higher = longer survival
In short: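 Mice carrying the transplanted tumor received test compound or vehicle. Survival was recorded in each group, and the value is the treated-group measurement divided by that of the vehicle-treated control group.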

[1] = dose: 50.0 mg/kg/injection, schedule: Q01DX005 (ip), vehicle: Klucel (hydroxypropylcellulose) (HPC)
[2] = dose: 50.0 mg/kg/injection, schedule: Q01DX005 (ip), vehicle: saline with Tween-80
[3] = dose: 100.0 mg/kg/injection, schedule: Q01DX005 (ip), vehicle: saline with Tween-80
[4] = dose: 200.0 mg/kg/injection, schedule: Q01DX005 (ip), vehicle: saline with Tween-80
[5] = dose: 25.0 mg/kg/injection, schedule: Q01DX009 (ip), vehicle: saline with Tween-80
[6] = dose: 50.0 mg/kg/injection, schedule: Q01DX009 (ip), vehicle: saline with Tween-80
[7] = dose: 100.0 mg/kg/injection, schedule: Q01DX009 (ip), vehicle: saline with Tween-80
[8] = dose: 200.0 mg/kg/injection, schedule: Q01DX009 (ip), vehicle: saline with Tween-80
[9] = dose: 60.0 mg/kg/injection, schedule: Q01DX005 (ip), vehicle: Klucel (hydroxypropylcellulose) (HPC)
[10] = dose: 120.0 mg/kg/injection, schedule: Q01DX005 (ip), vehicle: Klucel (hydroxypropylcellulose) (HPC)
[11] = dose: 240.0 mg/kg/injection, schedule: Q01DX005 (ip), vehicle: Klucel (hydroxypropylcellulose) (HPC)
[12] = dose: 100.0 mg/kg/injection, schedule: Q01DX005 (ip), vehicle: Klucel (hydroxypropylcellulose) (HPC)
[13] = dose: 200.0 mg/kg/injection, schedule: Q01DX005 (ip), vehicle: Klucel (hydroxypropylcellulose) (HPC)
[14] = dose: 50.0 mg/kg/injection, schedule: Q01DX009 (ip), vehicle: Klucel (hydroxypropylcellulose) (HPC)
[15] = dose: 100.0 mg/kg/injection, schedule: Q01DX009 (ip), vehicle: Klucel (hydroxypropylcellulose) (HPC)
[16] = dose: 200.0 mg/kg/injection, schedule: Q01DX009 (ip), vehicle: Klucel (hydroxypropylcellulose) (HPC)
[17] = dose: 6.25 mg/kg/injection, schedule: Q01DX005 (ip), vehicle: saline with Tween-80
[18] = dose: 12.5 mg/kg/injection, schedule: Q01DX005 (ip), vehicle: saline with Tween-80
[19] = dose: 25.0 mg/kg/injection, schedule: Q01DX005 (ip), vehicle: saline with Tween-80
[20] = dose: 60.0 mg/kg/injection, schedule: Q01DX005 (ip), vehicle: saline with Tween-80
[21] = dose: 120.0 mg/kg/injection, schedule: Q01DX005 (ip), vehicle: saline with Tween-80
[22] = dose: 6.25 mg/kg/injection, schedule: Q01DX009 (ip), vehicle: Klucel (hydroxypropylcellulose) (HPC)
[23] = dose: 12.5 mg/kg/injection, schedule: Q01DX009 (ip), vehicle: Klucel (hydroxypropylcellulose) (HPC)

Measured: T/C

CCOC(=O)C(Cc1ccccc1)P(=O)(OCC)OCC (centres undefined)
inactive: dose: 100.0 mg/kg/injection, schedule: Q01DX001 (ip), vehicle: saline 95 % of control | dose: 200.0 mg/kg/injection, schedule: Q01DX001 (ip), vehicle: saline 100 % of control | dose: 400.0 mg/kg/injection, schedule: Q01DX001 (ip), vehicle: saline 91 % of control

CN1N=C(C2=NN(C)C(=O)N(C)N2)NN(C)C1=O
inactive: dose: 12.5 mg/kg/injection, schedule: Q01DX005 (ip), vehicle: Klucel (hydroxypropylcellulose) (HPC) 101 % of control | dose: 25.0 mg/kg/injection, schedule: Q01DX005 (ip), vehicle: Klucel (hydroxypropylcellulose) (HPC) 97 % of control | [1] 104 % of control and 105 % of control

CCCCCCCCCCSc1n[nH]c(=S)s1
inactive: [2] 100 % of control | [3] 100 % of control | [4] 105 % of control

O=C1OC(c2ccccc2)=N/C1=C\c1ccccc1
inactive: [5] 95 % of control | [6] 100 % of control | [7] 100 % of control | [8] 95 % of control

CSC(=S)N/N=C(C)\C=N/Nc1ccccc1
inactive: dose: 100.0 mg/kg/injection, schedule: Q04DX002 (ip), vehicle: saline 101 % of control | dose: 200.0 mg/kg/injection, schedule: Q04DX002 (ip), vehicle: saline 106 % of control | dose: 400.0 mg/kg/injection, schedule: Q04DX002 (ip), vehicle: saline 96 % of control

NC(N)=NS(=O)(=O)c1ccc(N=Nc2c(O)n(-c3ccccc3)c(=S)n(-c3ccccc3)c2=O)cc1
inactive: [9] 105 % of control | [10] 99 % of control | [11] 99 % of control

Fc1ccc(NC(=S)S)cc1
inactive: dose: 6.25 mg/kg/injection, schedule: Q01DX009 (ip), vehicle: saline with Tween-80 104 % of control | dose: 6.25 mg/kg/injection, schedule: Q04DX003 (ip), vehicle: saline 100 % of control | dose: 12.5 mg/kg/injection, schedule: Q01DX009 (ip), vehicle: saline with Tween-80 104 % of control | dose: 12.5 mg/kg/injection, schedule: Q04DX003 (ip), vehicle: saline 115 % of control | [5] 104 % of control | dose: 25.0 mg/kg/injection, schedule: Q04DX003 (ip), vehicle: saline 100 % of control

O=C1CSC(c2ccccc2F)N1c1nccs1 (centres undefined)
inactive: [1] 100 % of control | [12] 103 % of control | [13] 109 % of control

Cc1cc(CC(C)O)n[nH]1 (centres undefined)
inactive: [14] 109 % of control | [15] 106 % of control | [16] 102 % of control

COC(=O)c1ccc(CNC(=O)c2ccccc2C(=O)NCC2(CBr)OCCO2)cc1
inactive: [14] 113 % of control | [15] 99 % of control | [16] 96 % of control

Nc1nc2c(C(=O)N3CCOCC3)nnn2c2ccccc12
inactive: [6] 100 % of control | [7] 92 % of control | [8] 96 % of control

CCCn1c2c(c3ccccc3c1=O)C(=O)c1ccccc1-2
inactive: [17] 95 % of control | [18] 88 % of control | [19] 93 % of control

CN1CC[C@H]([C@@H](O)c2ccccc2)C1=O
inactive: dose: 50.0 mg/kg/injection, schedule: Q01DX005 (ip), vehicle: saline 102 % of control | dose: 100.0 mg/kg/injection, schedule: Q01DX005 (ip), vehicle: saline 102 % of control | dose: 200.0 mg/kg/injection, schedule: Q01DX005 (ip), vehicle: saline 107 % of control

C1CC[C@]2([C@]34CCCC[C@H]3O4)O[C@@H]2C1
inactive: [9] 99 % of control | [10] 100 % of control | [11] 104 % of control

CC1CC(C)/C(=N/NC(N)=O)C(C(O)CC2CCC(=O)NC2=O)C1 (centres undefined)
inactive: [2] 100 % of control | [3] 115 % of control | [4] 115 % of control

CCOC(=O)c1nc(SC)sc1N
inactive: [20] 95 % of control | [21] 102 % of control

C[C@@H](O)[C@H](NSc1ccccc1[N+](=O)[O-])C(=O)NCCc1nc(-c2nc(C(=O)NCCCBr)cs2)cs1
inactive: [17] 93 % of control | [18] 95 % of control | [19] 90 % of control | [3] 97 % of control | [4] 86 % of control

Cc1cccc(Cl)c1NC1=NCCN1C(=O)CC(=O)c1ccccc1
inactive: dose: 3.13 mg/kg/injection, schedule: Q01DX009 (ip), vehicle: Klucel (hydroxypropylcellulose) (HPC) 107 % of control | [22] 105 % of control | [23] 99 % of control and 100 % of control

O=C1c2ccccc2C(=O)N1N1CC1c1ccccc1 (centres undefined)
inactive: [2] 106 % of control | [3] 101 % of control | [4] 97 % of control

O=C(Nc1cccc(C(F)(F)F)c1)c1cc(Br)cc(Br)c1O
inactive: [22] 95 % of control | [23] 100 % of control | dose: 25.0 mg/kg/injection, schedule: Q01DX009 (ip), vehicle: Klucel (hydroxypropylcellulose) (HPC) 91 % of control

S=C1NC2(CCCCCC2)NN1c1ccccc1
inactive: [6] 97 % of control | [7] 94 % of control | [8] 91 % of control

COc1cc(C(C)c2cc3c(cc2OC)OCO3)ccc1OCc1ccccc1 (centres undefined)
inactive: dose: 25.0 mg/kg/injection, schedule: Q01DX005 (ip), vehicle: distilled water + Tween-80 103 % of control | dose: 50.0 mg/kg/injection, schedule: Q01DX005 (ip), vehicle: distilled water + Tween-80 99 % of control and 87 % of control | dose: 100.0 mg/kg/injection, schedule: Q01DX005 (ip), vehicle: distilled water + Tween-80 100 % of control | dose: 200.0 mg/kg/injection, schedule: Q01DX005 (ip), vehicle: distilled water + Tween-80 94 % of control

CCOC(=O)c1c(N)sc2c1CCCC2
inactive: dose: 50.0 mg/kg/injection, schedule: Q04DX003 (ip), vehicle: saline with Tween-80 101 % of control | dose: 100.0 mg/kg/injection, schedule: Q01DX001 (ip), vehicle: saline sonified 100 % of control | dose: 100.0 mg/kg/injection, schedule: Q04DX003 (ip), vehicle: saline with Tween-80 108 % of control | dose: 200.0 mg/kg/injection, schedule: Q01DX001 (ip), vehicle: saline sonified 100 % of control | dose: 200.0 mg/kg/injection, schedule: Q04DX003 (ip), vehicle: saline with Tween-80 105 % of control | dose: 400.0 mg/kg/injection, schedule: Q01DX001 (ip), vehicle: saline sonified 100 % of control | dose: 400.0 mg/kg/injection, schedule: Q04DX003 (ip), vehicle: saline with Tween-80 101 % of control

CC1CCCN(c2cc(N(C)C)c([N+](=O)[O-])cc2F)C1 (centres undefined)
inactive: [1] 99 % of control | [12] 107 % of control | [13] 105 % of control

CCOC(=O)c1cc[nH]c1CC(=O)OC
inactive: dose: 100.0 mg/kg/injection, schedule: Q01DX001 (ip), vehicle: saline with Tween-80 99 % of control | dose: 200.0 mg/kg/injection, schedule: Q01DX001 (ip), vehicle: saline with Tween-80 96 % of control | dose: 400.0 mg/kg/injection, schedule: Q01DX001 (ip), vehicle: saline with Tween-80 100 % of control

Cc1ccn2c([N+](=O)[O-])cnc2c1
inactive: [6] 107 % of control | [7] 104 % of control | [8] 102 % of control

O=C1CCC(c2nc3ccccc3[nH]2)N1Cc1ccc(Cl)cc1 (centres undefined)
inactive: [20] 108 % of control | [21] 90 % of control | dose: 240.0 mg/kg/injection, schedule: Q01DX005 (ip), vehicle: saline with Tween-80 86 % of control

CCOC(=O)n1c(=O)oc2c(Br)cc(Br)cc21
inactive: dose: 50.0 mg/kg/injection, schedule: Q04DX002 (ip), vehicle: Klucel (hydroxypropylcellulose) (HPC) 96 % of control | dose: 100.0 mg/kg/injection, schedule: Q04DX002 (ip), vehicle: Klucel (hydroxypropylcellulose) (HPC) 99 % of control | dose: 200.0 mg/kg/injection, schedule: Q04DX002 (ip), vehicle: Klucel (hydroxypropylcellulose) (HPC) 93 % of control
